Source: BindingDB's records for doi:10.1016/j.chembiol.2011.12.010 (Boston College, 2012)

Tests used:
Test in all cases: In Vitro Enzyme Assay
[1] = molecular target: Dual specificity calcium/calmodulin-dependent 3',5'-cyclic nucleotide phosphodiesterase 1C (Human, UniProt Q14123)
[2] = molecular target: cGMP-inhibited 3',5'-cyclic phosphodiesterase 3B (Homo sapiens, UniProt Q13370)
[3] = molecular target: Cone cGMP-specific 3',5'-cyclic phosphodiesterase subunit alpha' (Homo sapiens, UniProt P51160)
Sequence of Cone cGMP-specific 3',5'-cyclic phosphodiesterase subunit alpha' (P51160 whole entry): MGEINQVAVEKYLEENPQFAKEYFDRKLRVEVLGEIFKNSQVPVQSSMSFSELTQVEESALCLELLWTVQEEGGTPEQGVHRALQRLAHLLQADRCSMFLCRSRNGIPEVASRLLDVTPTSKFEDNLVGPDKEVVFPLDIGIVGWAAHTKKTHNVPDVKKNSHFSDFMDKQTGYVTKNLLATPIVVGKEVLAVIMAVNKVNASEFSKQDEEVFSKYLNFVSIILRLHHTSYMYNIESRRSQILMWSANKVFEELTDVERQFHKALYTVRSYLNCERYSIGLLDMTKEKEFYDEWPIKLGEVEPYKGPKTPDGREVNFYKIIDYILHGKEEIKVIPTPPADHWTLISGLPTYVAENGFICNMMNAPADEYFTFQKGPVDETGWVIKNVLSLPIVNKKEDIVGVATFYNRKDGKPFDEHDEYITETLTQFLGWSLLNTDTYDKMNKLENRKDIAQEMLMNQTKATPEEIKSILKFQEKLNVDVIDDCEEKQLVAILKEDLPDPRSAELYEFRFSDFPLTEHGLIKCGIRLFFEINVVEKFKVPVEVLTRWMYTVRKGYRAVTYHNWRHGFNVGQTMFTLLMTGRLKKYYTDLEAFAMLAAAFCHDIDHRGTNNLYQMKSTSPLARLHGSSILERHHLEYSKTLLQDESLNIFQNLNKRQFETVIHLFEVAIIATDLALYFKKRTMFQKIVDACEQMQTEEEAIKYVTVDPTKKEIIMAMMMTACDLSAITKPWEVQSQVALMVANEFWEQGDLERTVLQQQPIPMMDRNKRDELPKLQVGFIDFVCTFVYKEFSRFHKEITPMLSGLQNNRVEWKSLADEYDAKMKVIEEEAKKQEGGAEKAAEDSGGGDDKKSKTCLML

[4] = molecular target: T1, cGMP-dependent 3',5'-cyclic phosphodiesterase (Rattus norvegicus, UniProt Q01062)
T1 sequence (Q01062 whole entry): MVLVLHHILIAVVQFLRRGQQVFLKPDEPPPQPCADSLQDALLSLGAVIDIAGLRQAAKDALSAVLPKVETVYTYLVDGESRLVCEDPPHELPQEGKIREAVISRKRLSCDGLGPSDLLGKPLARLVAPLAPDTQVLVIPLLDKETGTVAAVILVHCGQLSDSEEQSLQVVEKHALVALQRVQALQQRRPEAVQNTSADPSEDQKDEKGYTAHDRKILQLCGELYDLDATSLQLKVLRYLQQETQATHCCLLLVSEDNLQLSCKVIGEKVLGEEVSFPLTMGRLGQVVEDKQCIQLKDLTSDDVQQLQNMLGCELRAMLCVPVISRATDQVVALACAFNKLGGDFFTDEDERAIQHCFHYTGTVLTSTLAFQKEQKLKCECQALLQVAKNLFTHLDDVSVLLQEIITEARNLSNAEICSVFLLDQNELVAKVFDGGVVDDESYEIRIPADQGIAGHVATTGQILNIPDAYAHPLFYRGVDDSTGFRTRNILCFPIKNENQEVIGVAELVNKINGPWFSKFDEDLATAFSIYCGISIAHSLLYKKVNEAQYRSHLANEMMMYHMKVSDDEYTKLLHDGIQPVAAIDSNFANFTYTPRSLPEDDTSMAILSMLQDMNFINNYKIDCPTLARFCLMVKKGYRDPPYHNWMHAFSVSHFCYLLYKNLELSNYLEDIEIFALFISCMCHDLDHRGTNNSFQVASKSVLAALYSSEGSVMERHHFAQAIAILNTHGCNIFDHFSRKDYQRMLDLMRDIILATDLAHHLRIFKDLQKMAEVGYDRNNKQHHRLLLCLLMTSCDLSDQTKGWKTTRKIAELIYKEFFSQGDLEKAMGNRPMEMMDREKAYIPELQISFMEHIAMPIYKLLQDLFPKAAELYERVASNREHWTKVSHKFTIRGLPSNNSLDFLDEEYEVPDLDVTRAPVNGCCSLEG

[5] = molecular target: Dual 3',5'-cyclic-AMP and -GMP phosphodiesterase 11A (Homo sapiens, UniProt Q9HCR9)
Sequence of Dual 3',5'-cyclic-AMP and -GMP phosphodiesterase 11A (Q9HCR9 whole entry): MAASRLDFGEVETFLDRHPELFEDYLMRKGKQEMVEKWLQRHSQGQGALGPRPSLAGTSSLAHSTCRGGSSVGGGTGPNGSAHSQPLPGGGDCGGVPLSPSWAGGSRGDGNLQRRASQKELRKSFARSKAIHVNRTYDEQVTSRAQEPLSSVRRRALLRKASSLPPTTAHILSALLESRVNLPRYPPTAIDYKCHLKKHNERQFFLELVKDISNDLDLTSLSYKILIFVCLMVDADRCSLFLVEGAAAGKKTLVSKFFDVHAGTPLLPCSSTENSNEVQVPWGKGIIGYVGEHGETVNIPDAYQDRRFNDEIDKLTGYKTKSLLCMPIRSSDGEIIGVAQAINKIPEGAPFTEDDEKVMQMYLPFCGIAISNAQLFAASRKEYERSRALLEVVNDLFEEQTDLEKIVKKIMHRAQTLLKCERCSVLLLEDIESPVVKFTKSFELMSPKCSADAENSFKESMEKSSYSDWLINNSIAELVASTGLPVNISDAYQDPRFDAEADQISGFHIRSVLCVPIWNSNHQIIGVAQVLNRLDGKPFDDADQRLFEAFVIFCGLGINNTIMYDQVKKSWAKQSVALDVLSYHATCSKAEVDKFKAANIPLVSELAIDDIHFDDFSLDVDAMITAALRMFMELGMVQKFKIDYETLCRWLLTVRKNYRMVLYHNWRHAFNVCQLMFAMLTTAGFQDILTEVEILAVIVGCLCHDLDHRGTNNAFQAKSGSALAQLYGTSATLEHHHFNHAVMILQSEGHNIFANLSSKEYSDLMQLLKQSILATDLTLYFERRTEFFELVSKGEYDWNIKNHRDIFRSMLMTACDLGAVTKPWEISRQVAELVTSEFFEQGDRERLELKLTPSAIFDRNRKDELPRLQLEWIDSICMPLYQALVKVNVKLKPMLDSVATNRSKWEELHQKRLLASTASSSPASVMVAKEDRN

[6] = molecular target: High affinity cAMP-specific 3',5'-cyclic phosphodiesterase 7A (Homo sapiens, UniProt Q13946)
Sequence of High affinity cAMP-specific 3',5'-cyclic phosphodiesterase 7A (Q13946 whole entry): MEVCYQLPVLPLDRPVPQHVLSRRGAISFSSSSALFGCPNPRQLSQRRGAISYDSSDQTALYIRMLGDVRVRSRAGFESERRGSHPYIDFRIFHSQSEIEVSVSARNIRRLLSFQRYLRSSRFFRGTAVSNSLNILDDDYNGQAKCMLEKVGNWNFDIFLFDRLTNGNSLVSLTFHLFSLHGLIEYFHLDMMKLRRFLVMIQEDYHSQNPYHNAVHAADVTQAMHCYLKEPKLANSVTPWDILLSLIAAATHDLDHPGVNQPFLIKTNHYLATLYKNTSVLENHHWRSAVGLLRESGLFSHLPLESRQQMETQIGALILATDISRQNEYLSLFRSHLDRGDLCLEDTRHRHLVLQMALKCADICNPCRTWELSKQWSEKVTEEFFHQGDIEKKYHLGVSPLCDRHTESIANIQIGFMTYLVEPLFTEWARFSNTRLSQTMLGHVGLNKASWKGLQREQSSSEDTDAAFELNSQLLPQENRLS

[7] = molecular target: cAMP and cAMP-inhibited cGMP 3',5'-cyclic phosphodiesterase 10A (Homo sapiens, UniProt Q9Y233)

Sequence of cGMP-inhibited 3',5'-cyclic phosphodiesterase 3B (Q13370 whole entry): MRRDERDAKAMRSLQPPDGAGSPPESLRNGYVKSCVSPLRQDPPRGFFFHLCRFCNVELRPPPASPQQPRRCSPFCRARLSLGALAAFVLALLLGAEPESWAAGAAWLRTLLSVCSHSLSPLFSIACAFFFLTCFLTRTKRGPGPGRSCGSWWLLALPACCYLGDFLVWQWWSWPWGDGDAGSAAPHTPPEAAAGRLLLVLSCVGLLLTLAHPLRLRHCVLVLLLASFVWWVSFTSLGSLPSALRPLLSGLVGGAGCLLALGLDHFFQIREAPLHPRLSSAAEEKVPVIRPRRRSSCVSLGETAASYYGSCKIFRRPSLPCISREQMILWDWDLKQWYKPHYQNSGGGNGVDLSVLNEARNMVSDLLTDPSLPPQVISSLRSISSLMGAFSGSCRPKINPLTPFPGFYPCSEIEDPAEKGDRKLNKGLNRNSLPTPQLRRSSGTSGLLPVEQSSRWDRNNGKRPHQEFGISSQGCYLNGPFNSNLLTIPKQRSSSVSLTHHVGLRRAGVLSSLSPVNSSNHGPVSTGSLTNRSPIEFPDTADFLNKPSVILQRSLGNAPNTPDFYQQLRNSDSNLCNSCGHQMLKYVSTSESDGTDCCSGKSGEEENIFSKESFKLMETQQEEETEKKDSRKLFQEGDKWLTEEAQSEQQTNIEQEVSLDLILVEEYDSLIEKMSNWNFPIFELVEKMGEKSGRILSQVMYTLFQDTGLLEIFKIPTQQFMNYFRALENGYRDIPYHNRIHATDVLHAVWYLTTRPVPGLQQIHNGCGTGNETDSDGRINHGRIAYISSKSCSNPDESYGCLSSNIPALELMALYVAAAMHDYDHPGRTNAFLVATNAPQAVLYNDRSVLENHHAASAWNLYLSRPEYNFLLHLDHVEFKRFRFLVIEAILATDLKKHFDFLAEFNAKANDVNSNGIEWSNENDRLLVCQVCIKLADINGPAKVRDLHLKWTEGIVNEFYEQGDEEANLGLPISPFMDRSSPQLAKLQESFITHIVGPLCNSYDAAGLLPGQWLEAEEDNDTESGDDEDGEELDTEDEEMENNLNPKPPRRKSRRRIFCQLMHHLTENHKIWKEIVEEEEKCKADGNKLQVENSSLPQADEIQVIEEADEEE
Sequence of Dual specificity calcium/calmodulin-dependent 3',5'-cyclic nucleotide phosphodiesterase 1C (Q14123 whole entry): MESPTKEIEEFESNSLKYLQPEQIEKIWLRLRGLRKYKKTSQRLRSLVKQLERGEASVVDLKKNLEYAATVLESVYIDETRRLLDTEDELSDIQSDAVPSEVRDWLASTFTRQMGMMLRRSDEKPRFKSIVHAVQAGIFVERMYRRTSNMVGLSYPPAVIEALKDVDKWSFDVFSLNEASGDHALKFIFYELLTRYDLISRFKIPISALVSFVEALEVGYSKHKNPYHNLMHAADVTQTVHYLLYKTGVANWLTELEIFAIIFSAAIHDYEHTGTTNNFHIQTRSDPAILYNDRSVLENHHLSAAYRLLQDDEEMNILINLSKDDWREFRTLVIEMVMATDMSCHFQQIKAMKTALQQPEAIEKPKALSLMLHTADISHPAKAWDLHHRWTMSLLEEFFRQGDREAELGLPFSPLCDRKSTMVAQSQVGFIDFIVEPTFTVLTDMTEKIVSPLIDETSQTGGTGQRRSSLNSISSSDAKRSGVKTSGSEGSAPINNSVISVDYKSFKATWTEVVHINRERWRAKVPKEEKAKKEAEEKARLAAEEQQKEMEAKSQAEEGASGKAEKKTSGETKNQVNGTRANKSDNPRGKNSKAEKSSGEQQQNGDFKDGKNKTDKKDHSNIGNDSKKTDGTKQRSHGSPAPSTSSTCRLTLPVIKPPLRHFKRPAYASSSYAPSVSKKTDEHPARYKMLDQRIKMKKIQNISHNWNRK

SMILES	IC50 [1] [µM]	IC50 [2] [µM]	IC50 [3] [µM]	IC50 [4] [µM]	IC50 [5] [µM]	IC50 [6] [µM]	IC50 [7] [µM]
Cc1ccccc1Nc1ncnc2c1c(-c1ccccc1)cn2-c1ccc(F)cc1	> 100	> 100					
CCN(CC)C(=O)c1cc(-c2cccs2)nc2c1c(C)nn2-c1ccccc1C [BC11-15]	> 100	> 100					
CCCCSc1nc2c(c(=O)n1-c1ccccc1)SCC2 [BC11-38-1]		> 100					
CCC(C)Sc1nc2c(c(=O)n1-c1ccccc1)SCC2 (stereo not given) [BC11-38-2]	> 100	> 100	51.2	18.4			
CCCSc1nc2c(c(=O)n1-c1ccc(C)cc1)SCC2 [BC11-38-3]	> 100	> 100			7.5	21.3	
CCCSc1nc2c(c(=O)n1-c1ccccc1OC)SCC2 [BC11-38-4]	> 100	> 100			9.9		5.8
CCCSc1nc2c(c(=O)n1-c1ccccc1)SCC2 [BC11-38]	> 100	> 100					
COc1ccc2c(c1)sc1nc(=O)n(Cc3ccccc3)c(=O)n12 [US9173884, BC11-19-1]					2		
